# Data from patent publication US20170001970A1, “Substituted benzohydrazide analogs as histone demethylase inhibitors” (University of Utah Research Foundation, priority 2015, published 2017).
# Tested on: Ewing's sarcoma cells
# Assay: Cell viability with drug screening (CellTiter Glo, 72 hour)
# Type: cell-based
# Settings: SK-N-MC, SKESI, A673 cells
# Description: A hemocytometer count is performed to determine cell concentration. In a 96-well tissue culture plate, 2000 cells per well are plated for each drug concentration. Generally, 10 wells are done in duplicate. Then, the plates are placed in incubator overnight to allow cells to adhere to the plate (If suspension cells, proceed to the next step). Then, the desired drug concentrations are added to each well (ex. Serial dilutions 10 uM, 3 uM, 1 uM, […] . . . etc.). Generally, each drug concentration is made at 10× in media and then 10 uL of drug is diluted in 90 uL of cells to get the final desired concentration. Then, the cells are incubated at 37° C. for 72 hours; after 72 hours, 100 uL of Promega Cell Titer Glo is added, and allowed incubation at room temperature for 10 minutes. Finally, the plates are read using the Envision software. Data analysis is performed using Graph Pad Prism 6.
# FIGS. 5-7 depict graphs showing 72 hour time course cell viability of Ewing's sarcoma using CellTiter Glo (Promega). The tested compound was 10054Z and the control compound was 2606 which has the following structure: […]
row,Compound,"viability of Ewing's sarcoma cells (in words, FIGS. 5-7)"
1,"CC1CC(=NNC(=O)c2cccc(S(=O)(=O)N3CCN(C)CC3)c2)c2c(O)ccc(Cl)c21 (stereo in doubt) [SP-10054_Z, (E)-N′-(4-chloro-7-hydroxy-3-methyl-2,3-dihydro-1H-inden-1-ylidene)-3-((4-methylpiperazin-1-yl)sulfonyl)benzohydrazide]",significantly decrease the viability

# Biological target: T1, LSD1 (Homo sapiens, UniProt O60341)
# T1 construct: purchased Cayman Chemical Company 700120
# Assay: LSD1 histone demethylase assay (LSD1 Inhibitor Screening Assay Kit, Cayman)
# Type: biochemical
# Settings: not given
# Description: Recombinant (expressed in baculovirus infected BTI insect cells) monoamine oxidase A and monoamine oxidase B (Catalog No. M7316 and M7441, respectively) were purchased from Sigma-Aldrich Co. LLC. (St. Louis, Mo.). MAO-Glo™ Assay Kit was purchased from Promega Corporation (Madison, Wis.). ATPlite™ Luminescence Assay System (e.g. Catalog No. V1401) was purchased from PerkinElmer Inc. (Waltham, Mass.).
# Briefly, test compounds were diluted to 20× the desired test concentration in 100% DMSO and 2.5 μL of the diluted test sample was added to a black 384-well plate. The LSD1 enzyme stock was diluted 17-fold with assay buffer, and 40 μL of the diluted LSD1 enzyme was added to the appropriate wells. Substrate, consisting of horseradish peroxidase, dimethyl K4 peptide corresponding to the first 21 amino acids of the N-terminal tail of histone H3, and 10-acetyl-3,7-dihydroxyphenoxazine was then added to wells. Resorufin was analyzed on an Envision plate reader with an excitation wavelength of 530 nm and an emission wavelength of 595 nm.
# IC50 values are determined using GraphPad Prism 5 software. The data were entered as an X-Y plot into the software as percent inhibition for each concentration of the drug. The concentration values of the drug were log transformed and the nonlinear regression was carried out using the “sigmoidal dose-response (variable slope)” option within the GraphPad software to model the data and calculate IC50 values.
row,Compound,IC50
1,"CC1C/C(=N\NC(=O)c2cccc(S(=O)(=O)N3CCOCC3)c2)c2c(O)ccc(Cl)c21 (stereo not drawn) [SP-10055_E, (E)-N′-(4-chloro-7-hydroxy-3-methyl-2,3-dihydro-1H-inden-1-ylidene)-3-(morpholinosulfonyl)benzohydrazide]",0.078 µM
2,"Cc1ccc(Cl)c2c1/C(=N/NC(=O)c1cccc(S(=O)(=O)N3CCN(C)CC3)c1)CC2 [SP-10061_E, (E)-N′-(4-chloro-7-methyl-2,3-dihydro-1H-inden-1-ylidene)-3-((4-methylpiperazin-1-yl)sulfonyl)benzohydrazide]",30.4 µM
3,"Cc1cc(Cl)c2c(c1O)/C(=N/NC(=O)c1cccc(S(=O)(=O)N3CCC(C)CC3)c1)CC2 [SP-10046_E, (E)-N′-(4-chloro-7-hydroxy-6-methyl-2,3-dihydro-1H-inden-1-ylidene)-3-((4-methylpiperidin-1-yl)sulfonyl)benzohydrazide]",> 10 µM
4,CN1CCN(S(=O)(=O)c2cccc(C(=O)N/N=C3/CCc4cc(O)cc(Cl)c43)c2)CC1 [SP-10043_Z],> 10 µM
5,"CC1CC(=NNC(=O)c2cccc(S(=O)(=O)N3CCN(C)CC3)c2)c2c(O)ccc(Cl)c21 (stereo in doubt) [SP-10054_Z, (E)-N′-(4-chloro-7-hydroxy-3-methyl-2,3-dihydro-1H-inden-1-ylidene)-3-((4-methylpiperazin-1-yl)sulfonyl)benzohydrazide]",0.029 µM
6,"CCN1CCN(S(=O)(=O)c2cccc(C(=O)NN=C3CCc4c(Cl)cc(C)c(O)c43)c2)CC1 (stereo in doubt) [SP-10047_Z, (E)-N′-(4-chloro-7-hydroxy-6-methyl-2,3-dihydro-1H-Inden-1-ylidene)-3-((4-ethylpiperazin-1-yl)sulfonyl)benzohydrazide]",0.426 µM
7,"CC1CC(=NNC(=O)c2cccc(S(=O)(=O)N3CCOCC3)c2)c2c(O)ccc(Cl)c21 (stereo in doubt) [SP-10055_Z, (E)-N′-(4-chloro-7-hydroxy-3-methyl-2,3-dihydro-1H-inden-1-ylidene)-3-(morpholinosulfonyl)benzohydrazide]",0.418 µM
8,CN1CCN(S(=O)(=O)c2cccc(C(=O)N/N=C3/CCc4c(F)ccc(O)c43)c2)CC1 [SP-10044_Z],0.403 µM
9,"CN1CCN(S(=O)(=O)c2cccc(C(=O)N/N=C3\CCc4cc(O)cc(Cl)c43)c2)CC1 [SP-10043-E, (E)-N′-(7-chloro-5-hydroxy-2,3-dihydro-1H-inden-1-ylidene)-3-((4-methylpiperazin-1-yl)sulfonyl)benzohydrazide]",> 10 µM

# Biological target: T2, LSD2 (Homo sapiens, UniProt Q8NB78)
# T2 sequence (Q8NB78 1-822): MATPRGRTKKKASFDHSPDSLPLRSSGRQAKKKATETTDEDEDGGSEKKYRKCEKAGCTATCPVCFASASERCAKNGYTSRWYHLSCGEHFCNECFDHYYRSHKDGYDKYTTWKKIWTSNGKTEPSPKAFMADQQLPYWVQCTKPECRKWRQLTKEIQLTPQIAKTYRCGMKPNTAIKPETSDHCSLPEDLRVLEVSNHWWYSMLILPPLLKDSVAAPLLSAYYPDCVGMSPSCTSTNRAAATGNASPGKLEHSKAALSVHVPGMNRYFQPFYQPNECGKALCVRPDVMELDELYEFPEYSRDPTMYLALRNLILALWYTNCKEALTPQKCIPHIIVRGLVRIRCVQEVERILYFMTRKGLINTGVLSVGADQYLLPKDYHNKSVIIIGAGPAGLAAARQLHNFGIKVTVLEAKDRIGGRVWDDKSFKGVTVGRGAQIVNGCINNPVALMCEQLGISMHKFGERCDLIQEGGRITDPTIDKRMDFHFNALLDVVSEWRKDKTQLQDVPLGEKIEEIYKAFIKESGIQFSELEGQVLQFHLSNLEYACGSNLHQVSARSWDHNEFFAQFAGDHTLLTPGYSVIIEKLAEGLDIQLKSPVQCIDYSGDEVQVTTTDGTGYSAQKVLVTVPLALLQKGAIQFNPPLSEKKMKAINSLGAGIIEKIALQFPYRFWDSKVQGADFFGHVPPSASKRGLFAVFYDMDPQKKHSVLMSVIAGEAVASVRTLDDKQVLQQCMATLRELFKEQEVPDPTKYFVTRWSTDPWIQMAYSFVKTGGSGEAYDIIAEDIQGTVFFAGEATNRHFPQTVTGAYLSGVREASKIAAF
# Assay: LSD2 enzymatic activity (FIG. 4)
# Type: biochemical
# Settings: not given
# Description: Inhibition of LSD activity can be determined by a variety of both in vitro and in vivo methods known to one skilled in the art. For example, enzymatic activity can be determined in in vitro enzyme assay systems. In various aspects, the enzymatic activity of either LSD1 or LSD2 can be determined in a spectrophometric assay. Briefly, the assay is based on the multistep enzymatic reaction in which LSD1 or LSD2 first produces H2O2 during the demethylation of lysine 4 on a peptide corresponding to the first 21 amino acids of the N-terminal tail of histone H3. In the presence of horseradish peroxidase, the H2O2 produced reacts with ADHP to produce the highly fluorescent compound resorufin that can be analyzed with an excitation wavelength of 530-540 nm and an emission wavelength of 585-595 nm. The assay requires a source of LSD or LSD2 enzyme, either purified from natural sources (e.g. a tissue or cultured cells), isolated as a recombinantly expressed protein, or as a unpurified protein in whole cell extracts.
row,Compound,"inhibition of LSD2 activity (in words, FIG. 4)"
1,"CN1CCN(S(=O)(=O)c2cccc(C(=O)N/N=C3\CCc4c(Cl)ccc(O)c43)c2)CC1 [SP-10041_E, (E)-N′-(4-chloro-7-hydroxy-2,3-dihydro-1H-inden-1-ylidene)-3-((4-methylpiperazin-1-yl)sulfonyl)benzohydrazide]",significantly inhibit
2,CN1CCN(S(=O)(=O)c2cccc(C(=O)N/N=C3/CCc4c(Cl)ccc(O)c43)c2)CC1 [SP-10041_Z],significantly inhibit
